Laboratory results reported in patent publication US20160113931A1, “Method of treating and/or preventing neurodegenerative diseases” (University of Macau, priority 2014, published 2016).

Experiments:
SH-SY5Y cells [1] = assay: MPP+-induced mitochondrial membrane potential loss (JC-1 assay); format: cell-based, human; conditions: 2 h pre-treatment; for mitochondrial membrane potential (Δφm) compared to the control group: 2 mM MPP+, MPP+ alone 51%
Procedure: (FIG. 6A) Δψm was determined by the JC-1 assay.
JC-1 dye was used to monitor mitochondrial integrity. In brief, SH-SY5Y cells were seeded into black 96-well plates (5×10^3 cells/well). After treatment, the cells were incubated with JC-1 (10 μg/mL in medium) at 37° C. for 15 min and then washed twice with PBS. For signal quantification, the intensity of red fluorescence (excitation 560 nm, emission 595 nm) and green fluorescence (excitation 485 nm, emission 535 nm) were determined using a SpectraMax M5. Mitochondrial membrane potential (Δφm) was calculated as the ratio of JC-1 red/green fluorescence intensity and the value was normalized to the control group.
Loss of mitochondrial membrane potential and apoptotic nuclei were hallmarks for early and late stage of apoptosis. To determine whether BHDPC could reduce MPP^+-induced mitochondrial membrane potential (Δφm) loss, the Δφm in SH-SY5Y cells was assessed by analyzing the red/green fluorescent intensity ratio of JC-1 staining (FIG. 6A).

SH-SY5Y cells [2] = assay: Effect of PKA inhibitor H89 on BHDPC neuroprotection under MPP+ cytotoxicity; format: cell-based, human; conditions: with H89
From the text: To further confirm the involvement of PKA activation in the protective effects of BHDPC, H89, a PKA inhibitor was used to measure cell survival under MPP^+ cytotoxicity (FIG. 9).

[3] = tested on: oligodendroglial progenitor cells (OPCs); assay: Hydrogen peroxide-induced OPC death (MTT assay); format: cell-based, rat; conditions: 30 μM, 200 μM hydrogen peroxide 6 h
Procedure: (§1) OPCs were incubated with 30 μM BHDPC or 0.1% DMSO (vehicle control) for 2 h followed by the addition or not of 200 μM H2O2 for a further 6 h (FIG. 11A) or LPS (FIG. 11B) for 24 h.
(§2) The percentage of surviving cells was estimated by determining the activity of mitochondrial dehydrogenases with 3(4,5-dimethylthiazol-2-yl)-2,5-diphenyltetrazolium bromide (MTT) assay. After drug treatment, cells were incubated at 37° C. for 4 h in 0.5 mg/mL MTT solution. The medium was then removed, and 100 μL of DMSO was added to each well to dissolve the violet formazan crystals. The absorbance of the samples was measured at a wavelength of 570 nm with 655 nm as a reference wavelength. All values were normalized to the control groups.
(§3) Purified OPC cultures were prepared as described. In brief, primary rat mixed glial cell cultures were isolated from whole brains of postnatal day (P) 2 rats, dissociated into single cells, and cultured into poly-D-lysine (PDL) coated T75 tissue culture flasks. Plating medium consisted of Dulbecco's modified Eagle's medium (DMEM, Invitrogen, Carlsbad, Calif.) supplemented with 10% fetal bovine serum (FBS; Invitrogen, Carlsbad, Calif.), […]. Tissue cultures were maintained at 37° C. in a humidified 5% CO2 incubator, and medium was exchanged every 3 days. […]

[4] = tested on: oligodendroglial progenitor cells (OPCs); assay: LPS-induced OPC death (MTT assay); format: cell-based, rat; conditions: 30 μM BHDPC 2 h, LPS 24 h
Procedure: as §1, §2, §3

Question: COc1cc(C2C(C(=O)OCc3ccccc3)=C(C)Nc3nnnn32)ccc1O (stereo not shown) [BHDPC, benzyl 7-(4-hydroxy-3-methoxyphenyl)-5-methyl-4,7-dihydrotetrazolo[1,5-a]pyrimidine-6-carboxylate] was tested. Which “mitochondrial membrane potential (Δφm) compared to the control group” value (SH-SY5Y cells [1]; 3 μM) did it give?
Answer: 53%

Question: And the “mitochondrial membrane potential (Δφm) compared to the control group” value (SH-SY5Y cells [1]; 10 μM)?
Answer: 64%

Question: And the “MPP+-induced mitochondrial membrane potential (Δψm) loss, in words” value (SH-SY5Y cells [1]; 30 μM, 2 mM MPP+ 36 h)?
Answer: attenuated

Question: What about the “mitochondrial membrane potential (Δφm) compared to the control group” value (SH-SY5Y cells [1]; 30 μM) of the same molecule?
Answer: 75%

Question: What about the “neuroprotective effect of BHDPC in presence of PKA inhibitor H89” value (SH-SY5Y cells [2]) of the same molecule?
Answer: abolished

Question: What about the “hydrogen peroxide-induced cell death” value [3] of the same molecule?
Answer: dramatically attenuated

Question: And the LPS-induced cell death [4]?
Answer: reduced LPS-induced cell death
